Laboratory results from ChEMBL document CHEMBL4414596, “Highly Oxygenated Triterpenoids and Rare Tetraterpenoids from Abies chensiensis and Their Antibacterial Activity” (2019).
In brackets after ≈: the same amount, converted by molar mass. Activity calls are given as the source filed them. The calls are words filed in the database; no cut-off is given here.

Tests used:
Escherichia coli = assay: Antibacterial activity against Escherichia coli after 24 hrs by broth microdilution method; type: functional
Klebsiella pneumoniae = assay: Antibacterial activity against Klebsiella pneumoniae after 24 hrs by broth microdilution method; type: functional
Bacillus subtilis [1] = assay: Antibacterial activity against Bacillus subtilis after 24 hrs by broth microdilution method; type: functional
Staphylococcus aureus = assay: Antibacterial activity against Staphylococcus aureus after 24 hrs by broth microdilution method; type: functional
Bacillus subtilis [2] = assay: Antibacterial activity against Bacillus subtilis assessed as growth inhibition at 10 to 80 ug/ml measured up to 26 hrs relative to control; type: functional
Bacillus subtilis [3] = assay: Antibacterial activity against Bacillus subtilis assessed as growth inhibition at 5 ug/ml after 10 hrs; type: functional, organism-based
Bacillus subtilis [4] = assay: Induction of morphological changes in Bacillus subtilis assessed as cell disruption at 10 to 40 ug/ml after 24 hrs by SEM analysis; type: functional, organism-based
Bacillus subtilis [5] = assay: Antibacterial activity against Bacillus subtilis assessed as growth inhibition at 5 to 80 ug/ml after 2 to 26 hrs relative to control; type: functional
Bacillus subtilis [6] = assay: Induction of morphological changes in Bacillus subtilis assessed as wrinkled surface at 10 to 40 ug/ml after 24 hrs by SEM analysis; type: functional, organism-based
Bacillus subtilis [7] = assay: Induction of morphological changes in Bacillus subtilis assessed as slender shape at 10 to 40 ug/ml after 24 hrs by SEM analysis; type: functional, organism-based
Bacillus subtilis [8] = assay: Induction of morphological changes in Bacillus subtilis assessed as irregular size at 10 to 40 ug/ml after 24 hrs by SEM analysis; type: functional, organism-based

With `O=C(N[C@H](CO)[C@H](O)c1ccc([N+](=O)[O-])cc1)C(Cl)Cl` [CHLORAMPHENICOL] the MIC (Escherichia coli) was > 40 µg/mL, the MIC (Klebsiella pneumoniae) was > 40 µg/mL and the MIC (Bacillus subtilis [1]) was 5 µg/mL (≈ 15.5 µM). It also gave an MIC (Staphylococcus aureus) of 20 µg/mL (≈ 61.9 µM).
In the case of `CC1=C[C@@H](C[C@@H](C)[C@H]2C[C@@H](O)[C@@]3(C)[C@@H]4CC[C@H]5C(C)(C)[C@H](O)CC[C@@]56C[C@@]46CC[C@]23C)OC1=O`, the MIC (Escherichia coli) is reported as > 40 µg/mL, the MIC (Klebsiella pneumoniae) is reported as > 40 µg/mL and the MIC (Bacillus subtilis [1]) is reported as > 40 µg/mL. The MIC (Staphylococcus aureus) was > 40 µg/mL.
Work on `CN[C@@H]1[C@H](O[C@H]2[C@H](O[C@H]3[C@H](O)[C@@H](O)[C@H](N=C(N)N)[C@@H](O)[C@@H]3N=C(N)N)O[C@@H](C)[C@]2(O)C=O)O[C@@H](CO)[C@H](O)[C@H]1O` [STREPTOMYCIN] yielded an MIC (Escherichia coli) of 5 µg/mL (≈ 8.6 µM) and an MIC (Klebsiella pneumoniae) of 5 µg/mL (≈ 8.6 µM).
For `C/C(=C\CC[C@@H](C)[C@H]1[C@@H](O)[C@@H](O)[C@@]2(C)[C@@H]3CC[C@H]4C(C)(C)C(=O)CC[C@@]45C[C@@]35CC[C@]12C)C(=O)O`, the MIC (Escherichia coli) was > 40 µg/mL, the MIC (Klebsiella pneumoniae) was > 40 µg/mL and the MIC (Bacillus subtilis [1]) was > 40 µg/mL. The MIC (Staphylococcus aureus) was > 40 µg/mL.
In the case of `C/C(=C\CC[C@@H](C)[C@H]1C[C@@H](O)[C@@]2(C)[C@@H]3CC[C@H]4C(C)(C)[C@@H](O)CC[C@@]45C[C@@]35CC[C@]12C)C(=O)O`, the MIC (Escherichia coli) is reported as > 40 µg/mL, the MIC (Klebsiella pneumoniae) is reported as > 40 µg/mL and the “growth inhibition (GI)” value (Bacillus subtilis [2]) is reported as 100%. For the same molecule, the MIC (Bacillus subtilis [1]) was 10 µg/mL (≈ 21.2 µM), the “growth inhibition (GI)” value (Bacillus subtilis [3]) was “Active” and the MIC (Staphylococcus aureus) was 20 µg/mL (≈ 42.3 µM).
For `C[C@H](CC[C@@H](O)C(C)(C)O)[C@H]1CC[C@@]2(C)[C@@H]3CC[C@H]4C(C)(C)C(=O)CC[C@@]45C[C@@]35CC[C@]12C`, the MIC (Escherichia coli) was > 40 µg/mL, the MIC (Klebsiella pneumoniae) was > 40 µg/mL and the MIC (Bacillus subtilis [1]) was > 40 µg/mL. For the same molecule, the MIC (Staphylococcus aureus) was > 40 µg/mL.
For `C/C(=C\CC[C@@H](C)[C@H]1CC[C@@]2(C)[C@@H]3CC[C@H]4C(C)(C)[C@H](O)CC[C@@]45C[C@@]35CC[C@]12C)C(=O)O` [ISOMANGIFEROLIC ACID], the MIC (Escherichia coli) was > 40 µg/mL, the MIC (Klebsiella pneumoniae) was > 40 µg/mL and the MIC (Bacillus subtilis [1]) was > 40 µg/mL. The MIC (Staphylococcus aureus) was > 40 µg/mL.
In the case of `CO[C@@H]1CC[C@]23C[C@]24CC[C@]2(C)[C@@H]([C@H](C)CC/C=C(\C)C(=O)O)[C@@H](O)[C@@H](O)[C@@]2(C)[C@@H]4CC[C@H]3C1(C)C`, the MIC (Escherichia coli) is reported as > 40 µg/mL, the MIC (Klebsiella pneumoniae) is reported as > 40 µg/mL and the MIC (Bacillus subtilis [1]) is reported as 20 µg/mL (≈ 39.8 µM). For the same molecule, the MIC (Staphylococcus aureus) was 20 µg/mL (≈ 39.8 µM).
For `C/C(=C\CC[C@@H](C)[C@H]1CC[C@@]2(C)[C@@H]3CC[C@H]4C(C)(C)C(=O)CC[C@@]45C[C@@]35CC[C@]12C)C(=O)O` [MANGIFERONIC ACID], the MIC (Escherichia coli) was > 40 µg/mL, the MIC (Klebsiella pneumoniae) was > 40 µg/mL and the MIC (Bacillus subtilis [1]) was > 40 µg/mL. The MIC (Staphylococcus aureus) was > 40 µg/mL.
`CO[C@@H]1CC[C@]23C[C@]24CC[C@]2(C)[C@@H]([C@H](C)CC/C=C(\C)C(=O)O)C[C@@H](O)[C@@]2(C)[C@@H]4CC[C@H]3C1(C)C` was tested, and the MIC (Escherichia coli) was > 40 µg/mL, the MIC (Klebsiella pneumoniae) was > 40 µg/mL and the MIC (Bacillus subtilis [1]) was 20 µg/mL (≈ 41.1 µM). The MIC (Staphylococcus aureus) was > 40 µg/mL.
In the case of `C=C1CC[C@@](C)([C@H](C)CC(=O)C[C@@H](C)C(=O)O)[C@@]12CCC1=C2CC[C@H]2C(C)(C)C(=O)CC[C@]12C`, the MIC (Escherichia coli) is reported as > 40 µg/mL, the MIC (Klebsiella pneumoniae) is reported as > 40 µg/mL and the MIC (Bacillus subtilis [1]) is reported as 10 µg/mL (≈ 21.3 µM). The MIC (Staphylococcus aureus) was 40 µg/mL (≈ 85.3 µM).
With `C[C@H](CC[C@H](O)[C@](C)(O)CO)[C@H]1CC[C@@]2(C)[C@@H]3CC[C@H]4C(C)(C)C(=O)CC[C@@]45C[C@@]35CC[C@]12C` (relative stereo) the MIC (Escherichia coli) was > 40 µg/mL, the MIC (Klebsiella pneumoniae) was > 40 µg/mL and the MIC (Bacillus subtilis [1]) was > 40 µg/mL. The MIC (Staphylococcus aureus) was > 40 µg/mL.
In the case of `C/C(=C\CC[C@@H](C)[C@H]1C[C@@H](O)[C@@]2(C)[C@@H]3CC[C@H]4C(C)(C)C(=O)CC[C@@]45C[C@@]35CC[C@]12C)C(=O)O`, the MIC (Escherichia coli) is reported as > 40 µg/mL, the Activity (Bacillus subtilis [4]) is reported as “Active” and the MIC (Klebsiella pneumoniae) is reported as > 40 µg/mL. The “growth inhibition (GI)” value (Bacillus subtilis [5]) was 100%, the MIC (Bacillus subtilis [1]) was 5 µg/mL (≈ 10.6 µM) and the Activity (Bacillus subtilis [6]) was “Active”. For the same molecule, the MIC (Staphylococcus aureus) was 40 µg/mL (≈ 85 µM), the Activity (Bacillus subtilis [7]) was “Active” and the Activity (Bacillus subtilis [8]) was “Active”.
For `C/C(=C\CC[C@@H](C)[C@H]1CC[C@@]2(C)[C@@H]3CC[C@H]4C(C)(C)[C@@H](O)CC[C@@]45C[C@@]35CC[C@]12C)C(=O)O` [MANGIFEROLIC ACID], the MIC (Escherichia coli) was > 40 µg/mL, the MIC (Klebsiella pneumoniae) was > 40 µg/mL and the MIC (Bacillus subtilis [1]) was > 40 µg/mL. For the same molecule, the MIC (Staphylococcus aureus) was > 40 µg/mL.
For `CC1(C)S[C@@H]2[C@H](NC(=O)[C@H](N)c3ccccc3)C(=O)N2[C@H]1C(=O)O` [AMPICILLIN], the MIC (Escherichia coli) was > 40 µg/mL, the MIC (Klebsiella pneumoniae) was > 40 µg/mL and the MIC (Bacillus subtilis [1]) was > 40 µg/mL. For the same molecule, the MIC (Staphylococcus aureus) was 40 µg/mL (≈ 114 µM).
With `C/C(=C\CC[C@@H](C)[C@H]1C[C@@H](O)[C@@]2(C)[C@@H]3CC[C@H]4C(C)(C)[C@H](O)CC[C@@]45C[C@@]35CC[C@]12C)C(=O)O` the MIC (Escherichia coli) was > 40 µg/mL, the MIC (Klebsiella pneumoniae) was > 40 µg/mL and the MIC (Bacillus subtilis [1]) was 10 µg/mL (≈ 21.2 µM). For the same molecule, the MIC (Staphylococcus aureus) was > 40 µg/mL.
`CO[C@@H]1CC[C@]23C[C@]24CC[C@]2(C)[C@@H]([C@H](C)C[C@H](O)/C=C(\C)C(=O)O)CC[C@@]2(C)[C@@H]4CC[C@H]3C1(C)C` was tested, and the MIC (Escherichia coli) was > 40 µg/mL, the MIC (Klebsiella pneumoniae) was > 40 µg/mL and the MIC (Bacillus subtilis [1]) was > 40 µg/mL. For the same molecule, the MIC (Staphylococcus aureus) was > 40 µg/mL.
`CC1=C[C@@H](C[C@@H](C)[C@H]2CC[C@@]3(C)[C@@H]4CC[C@H]5C(C)(C)[C@@H](O)CC[C@@]56C[C@@]46CC[C@]23C)OC1=O` was tested, and the MIC (Escherichia coli) was > 40 µg/mL, the MIC (Klebsiella pneumoniae) was > 40 µg/mL and the MIC (Bacillus subtilis [1]) was > 40 µg/mL. For the same molecule, the MIC (Staphylococcus aureus) was > 40 µg/mL.
`C[C@H](CC[C@H](O)[C@](C)(O)CO)[C@H]1CC[C@@]2(C)[C@@H]3CC[C@H]4C(C)(C)[C@@H](O)CC[C@@]45C[C@@]35CC[C@]12C` (relative stereo) was tested, and the MIC (Escherichia coli) was > 40 µg/mL, the MIC (Klebsiella pneumoniae) was > 40 µg/mL and the MIC (Bacillus subtilis [1]) was > 40 µg/mL. For the same molecule, the MIC (Staphylococcus aureus) was > 40 µg/mL.
With `C/C(=C\[C@@H](O)C[C@@H](C)[C@H]1CC[C@@]2(C)[C@@H]3CC[C@H]4C(C)(C)[C@@H](O)CC[C@@]45C[C@@]35CC[C@]12C)C(=O)O` the MIC (Escherichia coli) was > 40 µg/mL, the MIC (Klebsiella pneumoniae) was > 40 µg/mL and the MIC (Bacillus subtilis [1]) was 20 µg/mL (≈ 42.3 µM). The MIC (Staphylococcus aureus) was > 40 µg/mL.
In the case of `C/C(=C\[C@@H](O)C[C@@H](C)[C@H]1CC[C@@]2(C)C3=C(CC[C@]12C)[C@@]1(C)CCC(=O)C(C)(C)[C@@H]1CC3)C(=O)O`, the MIC (Escherichia coli) is reported as > 40 µg/mL, the MIC (Klebsiella pneumoniae) is reported as > 40 µg/mL and the MIC (Bacillus subtilis [1]) is reported as 10 µg/mL (≈ 21.2 µM). It also gave an MIC (Staphylococcus aureus) of 40 µg/mL (≈ 85 µM).
`C=C1CC[C@@](C)([C@H](C)CC(=O)[C@H]2CC(CCC=C(C)C)=CC[C@]2(C)C(=O)O)[C@@]12CCC1=C2CC[C@H]2C(C)(C)[C@@H](O)CC[C@]12C` was tested, and the MIC (Escherichia coli) was > 40 µg/mL, the MIC (Klebsiella pneumoniae) was > 40 µg/mL and the MIC (Bacillus subtilis [1]) was > 40 µg/mL. For the same molecule, the MIC (Staphylococcus aureus) was > 40 µg/mL.
`CC1=CC(O)(C[C@@H](C)[C@H]2CC[C@@]3(C)C4=C(CC[C@]23C)[C@@]2(C)CCC(=O)C(C)(C)[C@@H]2CC4)OC1=O` (some centres not stated) was tested, and the MIC (Escherichia coli) was > 40 µg/mL, the MIC (Klebsiella pneumoniae) was > 40 µg/mL and the MIC (Bacillus subtilis [1]) was > 40 µg/mL. For the same molecule, the MIC (Staphylococcus aureus) was > 40 µg/mL.
